Results as given in patent US9164090B2, “Methods for detecting molecular interactions” (Korea Advanced Institute of Science and Technology, priority 2007, dated 2015).

What was measured:
IkBα and IKKb = assay: Formation of nano-assembly matrix by IKKb-IkBα interaction on physiological signal in Hela cells; type: cell-based; conditions: TNFa treatment; FRB-ECFP-FT, IKKb-mRFP-FKBP and IkBα-YFP-FKBP
Text: In another example, IKKb-IkBα proteins were used as prey-bait, and TNFa was used as a material for mediating (regulating) the interaction between them. The IkBα and IKKb proteins interact with each other, only when a physiological external signal of TNFa is transferred to cells. The interaction between phosphorylase (such as IKKb) and IkBα that is the substrate thereof is known as one of the weakest interactions in cells. The recombinant genes FRB-ECFP-FT, IKKb-mRFP-FKBP and IkBα-YFP-FKBP were introduced together into Hela cells, and each of the fusion proteins was expressed in the cells.

FKBP protein = molecular target: T1, FKBP protein (Homo sapiens, UniProt P62942); assay: Formation of nano-assembly matrices of FKBP (wild type)-ferritin by AP1510 in Hela cells; type: cell-based; conditions: 1 μM AP1510
T1 construct: fluorescent protein (mRFP); ferritin (FT); expressed in transfected cells; host or cells: HeLa
T1 sequence (P62942 whole entry): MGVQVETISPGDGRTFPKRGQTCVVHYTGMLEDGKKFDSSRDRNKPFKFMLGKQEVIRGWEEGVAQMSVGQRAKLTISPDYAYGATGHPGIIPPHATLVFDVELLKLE
Text: In this experiment, a FKBP (wild type) protein was used as a material for inducing the formation of nano-assembly matrices, while an AP1510 compound was used as a material for mediating the binding between FKBP proteins. The AP1510 compound is a FK506-like compound and is a mediator (regulator) material, which has two moieties capable of binding to the FKBP protein, linked with each other by a linker, such that it can interact simultaneously with two molecules of the FKBP protein.
Two FKBP (wild type) proteins were continuously fused to ferritin and expressed in Hela cells. The cells were treated with 1 μM of the AP1510 compound, which is an FKBP interaction mediator (regulator) material, and the formation of nano-assembly matrices within 1 hour was observed through In-Cell Analyzer 1000 (GE) (FIG. 35). After the formation of the nano-assembly matrices was induced for 3 hours, the cells were treated with 250 nM of Rapamycin for 1 hour.
For the case where mRFP was attached to the FKBP protein in Example 7, various fluorescent proteins, such as ECFP, TagCFP and mTFP1, were attached to the FKBP protein to examine the effect of the AP1510 compound on the induction of formation of nano-assembly matrices.
FKBP was fused to the ferritin protein, and the three different fluorescent proteins were attached between FKBP and ferritin, and then expressed in Hela cells. […]

time to formation of nano-assembly matrices (FKBP protein; two FKBP (wild type) fused to ferritin) [h]	Compound	formation of nano-assembly matrix (IkBα and IKKb)	induction of formation of nano-assembly matrices depending on fluorescent protein (FKBP protein; ECFP, TagCFP or mTFP1 between FKBP and ferritin)
–	TNFa	a large nano-assembly matrix was formed in cells	–
≤ 1	CCC(C)(C)C(=O)C(=O)N1CCCC[C@H]1C(=O)O[C@H](CCc1ccc(OC)c(OC)c1)c1cccc(OCC(=O)NCCNC(=O)COc2cccc([C@@H](CCc3ccc(OC)c(OC)c3)OC(=O)[C@@H]3CCCCN3C(=O)C(=O)C(C)(C)CC)c2)c1 [AP1510]	–	induced more effectively in the case of TagCFP-mTFP1 and mTFP1 than the case of ECFP
